# Article PMC11218997, “Human cytomegalovirus deploys molecular mimicry to recruit VPS4A to sites of virus assembly” (PLOS Pathogens, 2024)
# Where a SMILES comes first, the peptide text is derived from it.
# B1: Vps20: the yeast CHMP6 homologue (protein, UniProt Q04272 2-221, looked up)
# Vacuolar protein …: GQKSSKVHITKTDRAILEVKRSKDEIHKFTRRTDNLILVEKSQLKDLIRKNPENYKSNMKVRFLLKRIHYQEHLLQQASDQLINLENMVSTLEFKMVEKQFINGLKNGNEILKKLNKEFSNVDELMDDVQDQIAYQNEINETLSRSLVGTSNYEDDLDKELDALESELNPEKMNNAKVANMPSTEGLPSLPQGEQTEQKEREEFATEERSDTKEPLALLS
# B2: Vfa1: yeast protein Vfa1 that is proposed to positively regulate Vps4 activity (protein, UniProt P40080 1-203, looked up)
# VPS4-associated protein 1: MINEYVARKVALKDMQPCAICSKPSTTVLYNASGPDWLYTCEIHLQDNPQFVIPLYSTEYNEAVAQLKLVKGKMDSLTSAQTQLGSWDGWVTKIFSKKEKETNNSKDPDPTTTDSTDTSPQAKNDAEILSETKKQYSKILDKVTELQRKNRKYELAKIMFESRLLRKRTEQVNRERYLKEQENYSNTDPEELLRKHVFPSVPK
# How the values were obtained:
# [1] = molecular target: T1, human VPS4 MIT domain (residues 1–84) (Homo sapiens, UniProt Q9UN37); test: Isothermal titration calorimetry, titrant into VPS4A MIT domain; format: binding; details: ITC, 25°C; for -TΔS / N (stoichiometry) / ΔG / ΔH: n = 2–4
# T1 construct: The MIT domain (residues 1–84) of human VPS4A (UniProt Q9UN37); GST with human rhinovirus 3C cleavage site (N, cleaved yes); made in house; host or cells: Escherichia coli T7 Express lysY/Iq
# T1 sequence (Q9UN37 1-84): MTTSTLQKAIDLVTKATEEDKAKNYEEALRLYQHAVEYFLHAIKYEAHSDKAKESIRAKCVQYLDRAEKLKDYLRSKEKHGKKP
# Experimental: Proteins were expressed in Escherichia coli T7 Express lysY/I^q cells (New England Biolabs) in 2×TY medium at 37°C to an OD600 of 0.8–1.2 before inducing protein expression by addition of 0.4 mM isopropyl β-D-thiogalactopyranoside (IPTG). Expression of GST-tagged pUL71 truncations was induced at 37°C for 3 h, whereas expression of GST-VPS4A MIT domain was induced at 22°C for 16 h. Cells were resuspended at 4°C in GSH lysis buffer (20 mM Tris pH 7.5, 300 mM NaCl, 0.5 mM MgCl2, 1.4 mM β-mercaptoethanol, 0.05% TWEEN-20) supplemented with 200–400 U bovine DNase I (Merck) and 200 μL EDTA-free protease inhibitor cocktail (Merck) before lysis using a TS series cell disruptor (Constant Systems) at 24 kpsi. Lysates were cleared by centrifugation (40,000×g, 30 min, 4°C) and incubated with glutathione Sepharose 4B (Cytiva) for 1 h at 4°C before extensive washing (≥ 20 column volumes) with GSH wash buffer (20 mM Tris pH 7.5, 300 mM NaCl, 1 mM DTT) and elution using wash buffer supplemented with 25 mM reduced L-glutathione. GST-tagged pUL71 truncations were subjected to size-exclusion chromatography (SEC) using a Superdex 200 16/600 column (Cytiva) equilibrated in GSH wash buffer. For GST-VPS4A MIT domain, the GST tag was removed by supplementing the pooled SEC fractions containing the protein of interest with 0.5 mM EDTA and incubating overnight at 4°C with 50 μg of GST-tagged human rhinovirus 3C protease. Free GST and uncleaved GST-VPS4A MIT domain were captured using glutathione Sepharose and the cleaved complex was subjected to SEC using an S75 10/300 GL column (Cytiva) equilibrated in 50 mM HEPES pH 8, 100 mM NaCl, 0.5 mM Tris(2-carboxyethyl)phosphine (TCEP).
# Where necessary, proteins were exchanged into ITC buffer (50 mM HEPES pH 8, 100 mM NaCl, 0.5 mM TCEP) by SEC using Superdex 200 (GST-tagged titrants) or 75 (VPS4 MIT domain) 10/300 GL columns (Cytiva), or by extensive dialysis using tubing with a 3.5 kDa molecular weight cut-off (Pierce). Protein concentrations were estimated from A280 using extinction coefficients calculated from the protein sequence. Peptides encoding residues 166–181 of human CHMP6 or various truncations of HCMV pUL71 were purchased from Genscript at >95% purity and the dry peptides were resuspended in ITC buffer to the desired concentration. ITC experiments were performed at 25°C using an MicroCal PEAQ-ITC automated calorimeter (Malvern Panalytical). Titrants (GST-pUL71, GST-CHMP6 or peptides) were titrated into VPS4A MIT domain using either 19×2 μL or 12×3 μL injections (S1 Table). Data were analysed using the MicroCal PEAQ-ITC analysis software (Malvern Panalytical) and fitted using a one-site binding model.
# S1 Table. Thermodynamic properties of the interactions with VPS4 MIT domain. As quantitated by isothermal titration calorimetry (ITC). Data for independent experiments are shown. For all, the cell contained human VPS4 MIT domain (residues 1-84) and pUL71 is from HCMV unless stated otherwise. –, no binding detected.
# [2] = molecular target: VPS4A MIT domain (residues 1–84) (human) (UniProt Q9UN37); test: ITC; titrants (GST-pUL71, GST-CHMP6 or peptides) titrated into VPS4A MIT domain in the cell; 25°C; 50 mM HEPES pH 8, 100 mM NaCl, 0.5 mM TCEP; 19×2 μL or 12×3 μL injections; one-site binding model
# yeast Vps4 = details: reported; cited from earlier work
molecule,measurement,setting,value
CC[C@H](C)[C@H](NC(=O)[C@H](CCC(N)=O)NC(=O)[C@@H](N)CCC(=O)O)C(=O)N[C@@H](CCC(=O)O)C(=O)N[C@@H](CC(C)C)C(=O)N1CCC[C@H]1C(=O)N[C@@H](CCC(=O)O)C(=O)N[C@H](C(=O)N1CCC[C@H]1C(=O)N[C@@H](CO)C(=O)N[C@@H](CCC(=O)O)C(=O)N1CCC[C@H]1C(=O)N[C@@H](CC(C)C)C(=O)N1CCC[C@H]1C(=O)N[C@@H](CCC(=O)O)C(=O)N[C@@H](CCCCN)C(=O)O)C(C)C [CHMP6 peptide] (H-EQIELPEVPSEPLPEK-OH; N-terminus and C-terminus assumed),-TΔS,"[1]; pH 8, mean ± SD",-5.52 ± 0.58 kcal/mol
same,N (stoichiometry),"[1]; pH 8, mean ± SD",1.02 ± 0.17
same,ΔG,"[1]; pH 8, mean ± SD",-6.85 ± 0.38 kcal/mol
same,ΔH,"[1]; pH 8, mean ± SD",-1.33 ± 0.51 kcal/mol
same,-T∆S,"[1]; replicate 1, pH 8",-6.36 kcal/mol
same,N (sites),"[1]; replicate 1, pH 8",1
same,∆G,"[1]; replicate 1, pH 8",-7.2 kcal/mol
same,∆H,"[1]; replicate 1, pH 8",-0.844 kcal/mol
same,-T∆S,"[1]; replicate 2, pH 8",-5.11 kcal/mol
same,N (sites),"[1]; replicate 2, pH 8",0.79
same,∆G,"[1]; replicate 2, pH 8",-7.15 kcal/mol
same,∆H,"[1]; replicate 2, pH 8",-2.04 kcal/mol
same,-T∆S,"[1]; replicate 3, pH 8",-5.14 kcal/mol
same,N (sites),"[1]; replicate 3, pH 8",1.1
same,∆G,"[1]; replicate 3, pH 8",-6.46 kcal/mol
same,∆H,"[1]; replicate 3, pH 8",-1.32 kcal/mol
same,-T∆S,"[1]; replicate 4, pH 8",-5.46 kcal/mol
same,N (sites),"[1]; replicate 4, pH 8",1.17
same,∆G,"[1]; replicate 4, pH 8",-6.57 kcal/mol
same,∆H,"[1]; replicate 4, pH 8",-1.1 kcal/mol
CC[C@H](C)[C@H](NC(=O)[C@@H](N)CCC(=O)O)C(=O)N[C@@H](CC(=O)O)C(=O)N1CCC[C@H]1C(=O)N[C@@H](CC(C)C)C(=O)N[C@@H](CC(C)C)C(=O)N[C@@H](Cc1c[nH]cn1)C(=O)N[C@@H](CCC(N)=O)C(=O)N[C@@H](CCC(=O)O)C(=O)N[C@H](C(=O)NCC(=O)N[C@@H](CC(C)C)C(=O)N[C@@H](Cc1ccc(O)cc1)C(=O)N[C@@H](CCC(N)=O)C(=O)N[C@@H](C)C(=O)N[C@@H](CC(C)C)C(=O)N1CCC[C@H]1C(=O)N[C@@H](CC(N)=O)C(=O)N[C@@H](C)C(=O)N[C@H](C(=O)N[C@H](C(=O)N[C@@H](CCC(=O)O)C(=O)N[C@@H](C)C(=O)N1CCC[C@H]1C(=O)N[C@@H](CO)C(=O)N[C@@H](CCC(=O)O)C(=O)O)[C@@H](C)O)C(C)C)[C@@H](C)O [HHV6 pUL71 peptide] (H-EIDPLLHQETGLYQALPNAVTEAPSE-OH; N-terminus and C-terminus assumed),-TΔS,"[1]; pH 8, mean ± SD",1.01 ± 1.62 kcal/mol
same,N (stoichiometry),"[1]; pH 8, mean ± SD",1.18 ± 0.03
same,ΔG,"[1]; pH 8, mean ± SD",-6.16 ± 0.11 kcal/mol
same,ΔH,"[1]; pH 8, mean ± SD",-7.17 ± 1.52 kcal/mol
same,-T∆S,"[1]; replicate 1, pH 8",-0.117 kcal/mol
same,N (sites),"[1]; replicate 1, pH 8",1.16
same,∆G,"[1]; replicate 1, pH 8",-6.26 kcal/mol
same,∆H,"[1]; replicate 1, pH 8",-6.14 kcal/mol
same,-T∆S,"[1]; replicate 2, pH 8",0.27 kcal/mol
same,N (sites),"[1]; replicate 2, pH 8",1.22
same,∆G,"[1]; replicate 2, pH 8",-6.18 kcal/mol
same,∆H,"[1]; replicate 2, pH 8",-6.45 kcal/mol
same,-T∆S,"[1]; replicate 3, pH 8",2.87 kcal/mol
same,N (sites),"[1]; replicate 3, pH 8",1.17
same,∆G,"[1]; replicate 3, pH 8",-6.04 kcal/mol
same,∆H,"[1]; replicate 3, pH 8",-8.91 kcal/mol
CC[C@H](C)[C@H](NC(=O)[C@H](CCC(=O)O)NC(=O)[C@H](CCCNC(=N)N)NC(=O)[C@H](CCC(=O)O)NC(=O)[C@H](Cc1c[nH]cn1)NC(=O)[C@H](CC(N)=O)NC(=O)[C@@H](NC(=O)[C@@H]1CCCN1)[C@@H](C)O)C(=O)N[C@@H](CC(C)C)C(=O)N[C@@H](CC(=O)O)C(=O)N[C@@H](CC(C)C)C(=O)N[C@@H](CCSC)C(=O)N[C@@H](CCCNC(=N)N)C(=O)N[C@@H](Cc1c[nH]cn1)C(=O)N[C@@H](CO)C(=O)N1CCC[C@H]1C(=O)N[C@@H](CC(=O)O)C(=O)N[C@H](C(=O)N1CCC[C@H]1C(=O)N[C@@H](CCCNC(=N)N)C(=O)N[C@@H](CCC(=O)O)C(=O)N[C@@H](C)C(=O)N[C@H](C(=O)N[C@@H](CCSC)C(=O)N[C@@H](CO)C(=O)N1CCC[C@H]1C(=O)O)C(C)C)C(C)C [pUL71 (300–325) peptide] (H-PTNHEREILDLMRHSPDVPREAVMSP-OH),Kd,"[1]; 50 mM HEPES pH 8, 100 mM NaCl, 0.5 mM TCEP, one-site model, mean ± SD, n = 2–4 independent experiments",5.59 ± 0.34 µM
CHMP6 MIM2 peptide (from UniProt Q96FZ7 166-181),Kd,[2],11.2 µM
same,dH,[2],-1.33 kcal/mol
same,stoichiometry N,[2],1.02
GST-CHMP6: GST-tagged CHMP6 MIM2 motif (residues 168–181),-TΔS,"[1]; pH 8, mean ± SD",-4.81 ± 0.62 kcal/mol
same,ΔG,"[1]; pH 8, mean ± SD",-7.18 ± 0.12 kcal/mol
same,-T∆S,"[1]; replicate 1, pH 8",-5.25 kcal/mol
same,Kd,"[1]; replicate 1, pH 8",4.76 µM
same,N (sites),"[1]; replicate 1, pH 8",0.786
same,∆G,"[1]; replicate 1, pH 8",-7.26 kcal/mol
same,∆H,"[1]; replicate 1, pH 8",-2.02 kcal/mol
same,-T∆S,"[1]; replicate 2, pH 8",-4.37 kcal/mol
same,Kd,"[1]; replicate 2, pH 8",6.32 µM
same,N (sites),"[1]; replicate 2, pH 8",0.894
same,∆G,"[1]; replicate 2, pH 8",-7.09 kcal/mol
same,∆H,"[1]; replicate 2, pH 8",-2.72 kcal/mol
GST-pUL71 (283–336) (domain or fragment),Kd,[2],3.02 µM
same,dH,[2],-10.1 kcal/mol
same,stoichiometry N,[2],0.91
GST-pUL71 (300–325) (domain or fragment),Kd,[2],2.25 µM
same,dH,[2],-6.66 kcal/mol
same,stoichiometry N,[2],1.22
GST-pUL71 (300–361) (domain or fragment),Kd,[2],2.98 µM
same,dH,[2],-10.1 kcal/mol
same,stoichiometry N,[2],0.87
GST-pUL71(283–361) (domain or fragment),Kd,[2],2.84 µM
same,dH,[2],-9.05 kcal/mol
same,stoichiometry N,[2],1
HHV6 pU44 vMIM2 peptide (residues 174–199) (from UniProt A0A140AK71 174-199),Kd,[2],30.9 µM
same,dH,[2],-7.17 kcal/mol
same,stoichiometry N,[2],1.18
pUL71 (300–325) peptide,dH,[2],-6.22 kcal/mol
same,stoichiometry N,[2],1.38
B1,Kd,yeast Vps4,188 µM
B2,Kd,yeast Vps4,1.8 µM
same,fold tighter binding to Vps4 than Vps20,yeast Vps4,approximately 100 fold
